Data set [1] is described as follows: Quantification of inhibitor 45 in serum and cecal contents of gnotobiotic mice (LC–MS/MS). The format is in vivo, Mus musculus C57BL/6. The settings on record: 24 h after inhibitor gavage. The procedure: Female C57BL/6 germ-free mice (n = 8 per inhibitor group), 10–12 weeks of age in an isolator, were colonized with 200 µL of mix containing the five bacterial species mentioned above at ~10^8 bacterial cells/mL. Mice were fed a 1% choline diet (Envigo) ad libitum. Two weeks after colonization, mice were administrated by gavage with 3 mg/kg of the inhibitor or vehicle between 6 and 8 a.m. once a day for three consecutive days. After a 10-day washout period, mice were orally administered 30 mg/kg of the inhibitor once a day (same time as above) for three consecutive days, and blood was collected 24 h after the last gavage.
A fecal sample was collected before the first gavage. At sacrifice, tissues collected were blood, cecal contents, a fecal pellet, proximal colon, distal small intestine, liver, and kidney. Mice were anesthetized with isoflurane and underwent cardiac puncture for a terminal blood draw, followed by cervical dislocation. Tissues were snap-frozen in liquid nitrogen. Blood was spun down at 8,000 × g for 8 min at room temperature; the resulting serum layer was removed and snap-frozen. All snap-frozen tissues were stored at −80°C until needed.
A standard curve of inhibitor 45 spiked in commercial mouse serum (Sigma) was prepared. To 50 µL of serum sample, 450 µL of a mixture 75% acetonitrile, 25% methanol, 1% formic acid was added to precipitate proteins. […]

Data set [2] relates to conventional C57BL/6 mice. As to the kind of experiment: Serum TMAO in conventional mice after inhibitor treatment. The format is in vivo, Mus musculus C57BL/6. The protocol: In a biosafety cabinet, a 300 mg/mL stock of sterile inhibitor in filter-sterilized DMSO was prepared. After this preparation, a working solution of 3 mg/mL of the inhibitor stock in sterile 1% hydroxyethyl cellulose/1% polysorbate 80 was prepared within 4 days of gavaging the mice and stored at room temperature. A low dose of the inhibitor was also prepared, using a working solution of 0.3 mg/mL of the inhibitor stock in sterile 1% hydroxyethyl cellulose/1% polysorbate 80. The vehicle was prepared in the same way with DMSO without inhibitor. […] All mice were administered by gavage with 3 mg/kg or 30 mg/kg of the inhibitor once a day (between 6 and 8 a.m.) for three consecutive days. A fecal sample was collected before the first gavage. At sacrifice, tissues collected were blood, cecal contents, a fecal pellet, proximal colon, distal small intestine, liver, and kidney. Mice were anesthetized with isoflurane and underwent cardiac puncture for a terminal blood draw, followed by cervical dislocation. Tissues were snap-frozen in liquid nitrogen. Blood was spun down at 8,000 × g for 8 min at room temperature; the resulting serum layer was removed and snap-frozen. […] […] was used for peak quantification, and internal standards were utilized as a comparison to calculate plasma concentrations. Statistical significance was calculated using an unpaired t-test.

In the case of `Cc1ccc(-c2cc(C(=O)NCCCCCN3CCCCCC3)c(C)[nH]2)cc1C` [Compound 45], the “Concentration in wet cecal mass” value in data set [1] amounted to 463 pmol/µg. The compound further returned a concentration at 24 h in data set [1] (female, C57BL/6, mouse, serum, oral, 30 mg/kg, limit of detection 1 µM) of under 1000 nM. The “Serum TMAO level relative to vehicle treatment” value in data set [2] (30 mg/kg oral gavage daily for 3 days, 1% choline diet, P = 0.027) is reported as “about 60 % of vehicle treatment”. Besides, the “Decrease of serum TMAO levels” value in data set [2] (30 mg/kg, n = 6, P = 0.027) is recorded as ~ 40%.

The values above are taken from publication PMC12977544, “Phenotypic high-throughput screening identifies modulators of gut microbial choline metabolism” (mBio, 2026).
